In article PMC7904550, “Application of grouping and read-across for the evaluation of parabens of different chain lengths with a particular focus on endocrine properties” (Archives of Toxicology, 2021):
Marks after values point to notes of the source that are not given here.

Experiments:
bacteria = conditions: OECD 471; ref ECHA dissemination portal; cited from earlier work
rats = conditions: OECD 478; ref ECHA dissemination portal; cited from earlier work
mammalian cells = conditions: OECD 476; ref ECHA dissemination portal; cited from earlier work
Wistar rats = experiment: Extended one-generation reproductive toxicity study (OECD TG 443); type: in vivo, rat; conditions: for NOAEL, EOGRTS: developmental and reproductive toxicity: OECD 443 v 2018, oral gavage
From the text: Healthy and specific pathogen-free male and female (non-pregnant and nulliparous) Wistar Crl: WI(Han) rats were obtained from Charles River Laboratories (Germany). […] Upon arrival at BSL BIOSERVICE, the animals underwent an acclimatisation period of at least 5 days, and they were approximately 15–16 weeks old at the onset of the treatment period.

Question: Which “Mutagenicity in bacteria classification” value (bacteria) does the source give for `COC(=O)c1ccc(O)cc1` [Methyl paraben, Methyl 4-hydroxybenzoate] here?
Answer: Not mutagenic (OECD 471; 1982, 1991)

Question: What about the “Genetic toxicity in vivo (rats) classification” value (rats) of the same compound?
Answer: Not clastogenic (OECD 478; 1974) [d]

Question: What about the “Mutagenicity in mammalian cells classification” value (mammalian cells) of the same compound?
Answer: Not mutagenic [c] (OECD 476; 2019)

Question: And the “Developmental immunotoxicity (DIT)” value (Wistar rats; DIT cohort)?
Answer: did not exhibit

Question: What about the “Developmental neurotoxicity (DNT)” value (Wistar rats; DNT cohort) of the same compound?
Answer: did not exhibit DNT

Question: What about the “NOAEL, EOGRTS: developmental and reproductive toxicity” value (Wistar rats) of the same compound?
Answer: NOAEL: 1000 (OECD 443; v 2018) mg/kg body weight/day

Question: And the “NOAEL, EOGRTS: developmental and reproductive toxicity” value (Wistar rats; listed as methyl paraben)?
Answer: 1000 mg/kg body weight/day

Question: And the “Accessory sex organs HP” value (Wistar rats; P0, F1, (F2))?
Answer: NAE / NAE

Question: What about the “Adrenals HP” value (Wistar rats; P0, F1, (F2)) of the same compound?
Answer: NAE / NAE

Question: What about the Adrenals weight (Wistar rats; P0, F1, (F2)) of the same compound?
Answer: NAE / NAE

Question: What about the “Age at balano-preputial separation” value (Wistar rats; P0, F1, (F2)) of the same compound?
Answer: NAE / NAE

Question: What about the “Age at vaginal opening” value (Wistar rats; P0, F1, (F2)) of the same compound?
Answer: NAE / NAE

Question: What about the Anogenital distance (Wistar rats; P0, F1, (F2)) of the same compound?
Answer: NAE / NAE

Question: And the Auditory startle (Wistar rats; P0, F1, (F2))?
Answer: NAE / NAE

Question: And the “Brain HP” value (Wistar rats; P0, F1, (F2))?
Answer: NAE / NAE

Question: And the Brain morphometric evaluation (Wistar rats; P0, F1, (F2))?
Answer: NAE / NAE

Question: What about the Brain weight (Wistar rats; P0, F1, (F2)) of the same compound?
Answer: NAE / NAE

Question: What about the “Cervix HP” value (Wistar rats; P0, F1, (F2)) of the same compound?
Answer: NAE / NAE

Question: And the “Coagulating gland HP” value (Wistar rats; P0, F1, (F2))?
Answer: NAE / NAE

Question: And the Coagulating gland weight (Wistar rats; P0, F1, (F2))?
Answer: NAE / NAE

Question: What about the “Colloid area (thyroid HP)” value (Wistar rats; P0, F1, (F2)) of the same compound?
Answer: NAE / NAE

Question: What about the Dystocia (Wistar rats; P0, F1, (F2)) of the same compound?
Answer: NAE / NAE

Question: What about the “Epididymis HP” value (Wistar rats; P0, F1, (F2)) of the same compound?
Answer: NAE / NAE

Question: And the Epididymis weight (Wistar rats; P0, F1, (F2))?
Answer: NAE / NAE

Question: What about the Fertility (Wistar rats; P0, F1, (F2)) of the same compound?
Answer: NAE / NAE

Question: What about the Foetal development (Wistar rats; P0, F1, (F2)) of the same compound?
Answer: NAE / NAE

Question: And the Functional observation battery (Wistar rats; P0, F1, (F2))?
Answer: NAE [h] / NAE

Question: And the Gestation length (Wistar rats; P0, F1, (F2))?
Answer: NAE / NAE

Question: What about the Litter size (Wistar rats; P0, F1, (F2)) of the same compound?
Answer: NAE / NAE

Question: And the Litter viability (Wistar rats; P0, F1, (F2))?
Answer: NAE / NAE

Question: What about the Liver weight (Wistar rats; P0, F1, (F2)) of the same compound?
Answer: NAE / NAE

Question: And the “Mammary gland HP; females” value (Wistar rats; P0, F1, (F2))?
Answer: NAE / NAE

Question: And the “Mammary gland HP; males” value (Wistar rats; P0, F1, (F2))?
Answer: NAE / NAE

Question: What about the Motor activity (Wistar rats; P0, F1, (F2)) of the same compound?
Answer: NAE / NAE

Question: And the Nipple development (Wistar rats; P0, F1, (F2))?
Answer: NAE / NAE

Question: What about the “No. of implantations, corpora lutea” value (Wistar rats; P0, F1, (F2)) of the same compound?
Answer: NAE / NAE

Question: What about the “No. of live births” value (Wistar rats; P0, F1, (F2)) of the same compound?
Answer: NAE / NAE

Question: And the “No. of ovarian follicles” value (Wistar rats; P0, F1, (F2))?
Answer: NAE / NAE

Question: And the Oestrus cyclicity (Wistar rats; P0, F1, (F2))?
Answer: NAE / NAE

Question: What about the “Offspring: learning & memory” value (Wistar rats; P0, F1, (F2)) of the same compound?
Answer: NAE / NAE

Question: What about the “Ovary HP” value (Wistar rats; P0, F1, (F2)) of the same compound?
Answer: NAE / NAE

Question: And the Ovary weight (Wistar rats; P0, F1, (F2))?
Answer: NAE / NAE

Question: What about the “Oviduct HP” value (Wistar rats; P0, F1, (F2)) of the same compound?
Answer: NAE / NAE

Question: And the “Pituitary HP” value (Wistar rats; P0, F1, (F2))?
Answer: NAE / NAE

Question: What about the Pituitary weight (Wistar rats; P0, F1, (F2)) of the same compound?
Answer: NAE / NAE

Question: What about the Postimplantation loss (Wistar rats; P0, F1, (F2)) of the same compound?
Answer: NAE / NAE

Question: What about the “Presence of anomalies (external, visceral, skeletal)” value (Wistar rats; P0, F1, (F2)) of the same compound?
Answer: NAE / NAE

Question: What about the “Prostate HP” value (Wistar rats; P0, F1, (F2)) of the same compound?
Answer: NAE / NAE

Question: What about the Prostate weight (Wistar rats; P0, F1, (F2)) of the same compound?
Answer: NAE / NAE

Question: What about the Pup development (Wistar rats; P0, F1, (F2)) of the same compound?
Answer: NAE / NAE

Question: What about the Reproduction (Wistar rats; P0, F1, (F2)) of the same compound?
Answer: NAE / NAE

Question: What about the “Seminal vesicles HP” value (Wistar rats; P0, F1, (F2)) of the same compound?
Answer: NAE / NAE

Question: What about the Seminal vesicles weight (Wistar rats; P0, F1, (F2)) of the same compound?
Answer: NAE / NAE

Question: What about the Sperm morphology (Wistar rats; P0, F1, (F2)) of the same compound?
Answer: NAE / NAE

Question: And the Sperm motility (Wistar rats; P0, F1, (F2))?
Answer: NAE / NAE

Question: And the Sperm numbers (Wistar rats; P0, F1, (F2))?
Answer: NAE / NAE

Question: And the “Testis HP” value (Wistar rats; P0, F1, (F2))?
Answer: NAE / NAE

Question: What about the Testis weight (Wistar rats; P0, F1, (F2)) of the same compound?
Answer: NAE / NAE

Question: And the “Thyroid HP” value (Wistar rats; P0, F1, (F2))?
Answer: NAE / NAE

Question: What about the “Thyroid stimulating hormone level” value (Wistar rats; P0, F1, (F2)) of the same compound?
Answer: NAE / NAE

Question: And the Thyroid weight (Wistar rats; P0, F1, (F2))?
Answer: NAE / NAE

Question: And the Time to mating (Wistar rats; P0, F1, (F2))?
Answer: NAE / NAE

Question: And the “Triiodothyronine / thyroxine level” value (Wistar rats; P0, F1, (F2))?
Answer: NAE / NAE

Question: And the “Uterus HP (with cervix)” value (Wistar rats; P0, F1, (F2))?
Answer: NAE / NAE

Question: And the “Uterus weight (with cervix)” value (Wistar rats; P0, F1, (F2))?
Answer: NAE / NAE

Question: And the “Vagina HP” value (Wistar rats; P0, F1, (F2))?
Answer: NAE / NAE

Question: And the Vaginal smears (Wistar rats; P0, F1, (F2))?
Answer: NAE / NAE

Question: What about the “Alterations of the parameters addressed in OECD TG 443” value (Wistar rats; up to 1000 mg/kg bw/day) of the same compound?
Answer: no toxicologically relevant alterations
